target: Cyclin-dependent kinase 4/G1/S-specific cyclin-D1 [L188C] (Homo sapiens, UniProt P11802); assay: CDKs Assay; conditions: not given
Procedure: The enzyme was assayed with substrate GST- retinoblastoma in the presence of 25 uM ATP/[gamma-32P] ATP. IC50 is the inhibitor concentration, which inhibits 50% of enzyme activity that catalyzes the transfer of the terminal phosphate from [gamma-32P] labeled ATP to GST- retinoblastoma. Use of 32P-labeled ATP allows this transfer to be monitored by scintillation counting.

IC50 | SMILES
182 nM | O=c1ccc2cnc(Nc3ccccc3)nc2n1C1CCCCCC1 [8-cycloheptyl-2-(phenylamino)-7H,8H-pyrido[2,3-d]pyrimidin-7-one]
300 nM | CCn1c(=O)ccc2cnc(Nc3ccc(N4CCOCC4)cc3)nc21 [8-Ethyl-2-(4-(morpholin-4-yl)phenylamino)-8H-pyrido[2,3-d]pyrimidin-7-one]
210 nM | O=c1ccc2cnc(Nc3ccccc3)nc2n1C1CCCC1 [8-cyclopentyl-2-(phenylamino)-7H,8H-pyrido[2,3-d]pyrimidin-7-one]
47 nM | O=c1ccc2cnc(Nc3ccccc3)nc2n1C1CCCCC1 [8-Cyclohexyl-2-phenylamino-8H-pyrido[2,3-d]pyrimidin-7-one]

More lines, now with the values behind:

SMILES | IC50
O=c1ccc2cnc(Nc3ccccc3)nc2n1CC1CO1 (configuration not stated) [8-Oxiranylmethyl-2-phenylamino-8H-pyrido[2,3-d]pyrimidin-7-one] | 5000 nM
CCCCn1c(=O)ccc2cnc(Nc3ccccc3)nc21 [8-Butyl-2-phenylamino-8H-pyrido[2,3-d]pyrimidin-7-one] | 1490 nM
O=c1ccc2cnc(Nc3ccccc3)nc2n1Cc1ccccc1 [8-benzyl-2-(phenylamino)-7H,8H-pyrido[2,3-d]pyrimidin-7-one] | 940 nM
CCCn1c(=O)ccc2cnc(Nc3ccccc3)nc21 [2-(phenylamino)-8-propyl-7H,8H-pyrido[2,3-d]pyrimidin-7-one] | 553 nM
Cn1c(=O)ccc2cnc(Nc3ccccc3)nc21 [8-Methyl-2-phenylamino-8H-pyrido[2,3-d]pyrimidin-7-one] | 5480 nM
CC(C)n1c(=O)ccc2cnc(Nc3ccc(N4CCN(C)CC4)cc3)nc21 [8-Isopropyl-2-[4-(4-methylpiperazin-1-yl)phenylamino]-8H-pyrido[2,3-d]pyrimidin-7-one] | 32 nM
CCn1c(=O)ccc2cnc(Nc3ccc(N4CCN(C)CC4)cc3)nc21 [8-Ethyl-2-[4-(4-methylpiperazin-1-yl)phenylamino]-8H-pyrido[2,3-d]pyrimidin-7-one] | 85 nM
CCN(CC)CCOc1ccc(Nc2ncc3ccc(=O)n(C(C)C)c3n2)cc1 [2-({4-[2-(diethylamino)ethoxy]phenyl}amino)-8-(propan-2-yl)-7H,8H-pyrido[2,3-d]pyrimidin-7-one] | 45 nM
O=c1ccc2cnc(Nc3ccccc3)nc2n1C1CC2CCC1C2 (configuration not stated) [8-Bicyclo[2.2.1]hept-2-yl-2-phenylamino-8H-pyrido[2,3-d]pyrimidin-7-one] | 38 nM

same assay, conditions: pH 7.4; 25 °C

IC50 | SMILES
3300 nM | CCn1c(=O)ccc2cnc(NC3CCCCC3)nc21 [2-Cyclohexylamino-8-ethyl-8H-pyrido[2,3-d]pyrimidin-7-one]
1400 nM | CCn1c(=O)ccc2cnc(Nc3cccc(F)c3)nc21 [8-Ethyl-2-(3-fluorophenylamino)-8H-pyrido[2,3-d]pyrimidin-7-one]
1240 nM | CCn1c(=O)ccc2cnc(Nc3ccc(F)cc3)nc21 [8-ethyl-2-[(4-fluorophenyl)amino]-7H,8H-pyrido[2,3-d]pyrimidin-7-one]
600 nM | CCn1c(=O)ccc2cnc(Nc3ccc(OC)cc3)nc21 [8-ethyl-2-[(4-methoxyphenyl)amino]-7H,8H-pyrido[2,3-d]pyrimidin-7-one]
5250 nM | CCn1c(=O)ccc2cnc(NC(C)(C)C)nc21 [2-(tert-butylamino)-8-ethyl-7H,8H-pyrido[2,3-d]pyrimidin-7-one]
12000 nM | CCNc1ncc2ccc(=O)n(CC)c2n1 [8-ethyl-2-(ethylamino)-7H,8H-pyrido[2,3-d]pyrimidin-7-one]

Continued, compound first:

SMILES | IC50
CCn1c(=O)ccc2cnc(Nc3cccc(OC(F)(F)C(F)F)c3)nc21 [8-Ethyl-2-[3-(1,1,2,2-tetrafluoroethoxy)phenylamino]-8H-pyrido[2,3-d]pyrimidin-7-one] | 7830 nM
CCN(CC)CCOc1ccc(Nc2ncc3ccc(=O)n(CC)c3n2)cc1 [2-({4-[2-(diethylamino)ethoxy]phenyl}amino)-8-ethyl-7H,8H-pyrido[2,3-d]pyrimidin-7-one] | 160 nM
CCn1c(=O)ccc2cnc(Nc3ccc(N(C)C)cc3)nc21 [2-{[4-(dimethylamino)phenyl]amino}-8-ethyl-7H,8H-pyrido[2,3-d]pyrimidin-7-one] | 330 nM

— BindingDB's records for doi:10.1021/jm000271k (Parke-Davis Pharmaceutical Research, 2000)
